41 compounds from US4521422A, “Aryl and heteroaryl[7-(aryl and heteroaryl)pyrazolo[1,5-a]pyrimidin-3-yl]methanones” (American Cyanamid Company, priority 1984, dated 1985) can be followed below.

This assay concerns Clonic Seizures Caused by Pentylenetetrazole in Rats. Briefly: Protection against clonic seizures caused by pentylenetetrazole in rats. Conditions: Rattus norvegicus; dose 25.0 mg/kg, oral or i.p.; pentylenetetrazole 23 mg/kg i.v. at 30 or 60 min; read-out: % of Rats Protected. It is filed as in vivo. As for the experimental part: The anti-anxiety and anticonvulsant properties of the novel compounds of the present invention have been established in a test which indicates anxiolytic and antiepileptic activity by the measure of protection from convulsions resulting from the administration of pentylenetetrazole. Single or graded dose levels of the test compounds were administered orally or intraperitoneally in a 2% starch vehicle, containing 0.5% v/v polyethylene glycol and one drop of Polysorbate 80 to groups of at least 4 rats. At 30 or 60 minutes, the rats were treated intravenously with pentylenetetrazole at a dose of 23 mg/kg of body weight. This dose is estimated to cause clonic seizures in 99% of unprotected rats. It has been reported [R. T. Hill and D. H. Tedeschi, "Animal Testing and Screening Procedures in Evaluating Psychotropic Drugs" in "An Introduction to Psychopharmacology", Eds. R. R. Rech and K. E. Moore, Raven Press, New York, pp 237-288 (1971)] that there is a high degree of correlation between antagonism of pentylenetetrazole seizures in rats and anti-anxietyor anticonvulsant effects in higher warm-blooded animals.
For the compound `Cc1cc(-c2cccc(C(F)(F)F)c2)n2ncc(C(=O)c3ccc(F)cc3)c2n1` [(4-fluorophenyl)[5-methyl-7-[3-(trifluoromethyl)phenyl]pyrazolo[1,5-a]pyrimidin-3-yl]methanone], the responders at 25 mg/kg stood at 25%.

Consider `COc1cc(C(=O)c2cnn3c(-c4cccnc4)ccnc23)cc(OC)c1OC` [[7-(3-pyridinyl)pyrazolo[1,5-a]pyrimidin-3-yl](3,4,5-trimethoxyphenyl)methanone], for which the responders at 25 mg/kg stood at 25%.

In the case of `Cc1nn2c(-c3ccncc3)ccnc2c1C(=O)c1ccccc1` [[2-methyl-7-(4-pyridinyl)pyrazolo[1,5-a]pyrimidin-3-yl]phenylmethanone], the responders at 25 mg/kg was determined as 25%.

For the compound `O=C(c1ccccn1)c1cnn2c(-c3ccc(C(F)(F)F)cc3)ccnc12` [2-pyridinyl[7-[4-(trifluoromethyl)phenyl]pyrazolo[1,5-a]pyrimidin-3-yl]methanone], the responders at 25 mg/kg is 25%.

As for `CCOc1ccc(C(=O)c2cnn3c(-c4cccnc4)ccnc23)cc1` [(4-ethoxyphenyl)[7-(3-pyridinyl)pyrazolo[1,5-a]pyrimidin-3-yl]methanone], the responders at 25 mg/kg amounted to 25%.

Turning to `Cc1cnc2c(C(=O)c3ccc(F)cc3)cnn2c1-c1cccnc1` [(4-fluorophenyl)[6-methyl-7-(3-pyridinyl)pyrazolo[1,5-a]pyrimidin-3-yl]methanone], the responders at 25 mg/kg was found to be 75%.

For the compound `O=C(c1cccs1)c1cnn2c(-c3cccc(F)c3)ccnc12` [[7-(3-fluorophenyl)pyrazolo[1,5-a]pyrimidin-3-yl]-2-thienylmethanone], the responders at 25 mg/kg came out at 25%.

`O=C(c1ccccc1)c1cnn2c(-c3ccc[n+]([O-])c3)ccnc12` [Phenyl[7-(3-pyridinyl)pyrazolo[1,5-a]pyrimidin-3-yl]methanone, pyridine-1-oxide]: the responders at 25 mg/kg worked out at 25%.

As for `COc1ccc(C(=O)c2cnn3c(-c4ccc[n+]([O-])c4)ccnc23)cc1` [(4-Methoxyphenyl)[7-(3-pyridinyl)pyrazolo[1,5-a]pyrimidin-3-yl]methanone, pyridine-1-oxide], the responders at 25 mg/kg came out at 25%.

For the compound `O=C(c1ccc(C(F)(F)F)cc1)c1cnn2c(-c3ccc(Cl)c(Cl)c3)ccnc12` [[7-(3,4-dichlorophenyl)pyrazolo[1,5-a]pyrimidin-3-yl][4-(trifluoromethyl)phenyl]methanone], the responders at 25 mg/kg was 50%.

Turning to `Cc1ccccc1C(=O)c1cnn2c(-c3ccc(C(F)(F)F)cc3)ccnc12` [(2-methylphenyl)[7-[4-(trifluoromethyl)phenyl]pyrazolo[1,5-a]pyrimidin-3-yl]methanone], the responders at 25 mg/kg worked out at 25%.

For the compound `O=C(c1ccc(C(F)(F)F)cc1)c1cnn2c(-c3ccc(C(F)(F)F)cc3)ccnc12` [[4-(trifluoromethyl)phenyl][7-[4-(trifluoromethyl)phenyl]pyrazolo[1,5-a]pyrimidin-3-yl]methanone], the responders at 25 mg/kg is 25%.

Turning to `Cc1ccc(C(=O)c2cnn3c(-c4cccnc4)ccnc23)s1` [(5-methyl-2-thienyl)[7-(3-pyridinyl)pyrazolo[1,5-a]pyrimidin-3-yl]methanone], the responders at 25 mg/kg stood at 25%.

Turning to `COc1ccc(C(=O)c2cnn3c(-c4cc(OC)c(OC)c(OC)c4)ccnc23)cc1OC` [(3,4-dimethoxyphenyl)[7-(3,4,5-trimethoxyphenyl)pyrazolo[1,5-a]pyrimidin-3-yl]methanone], the responders at 25 mg/kg is 75%.

For `O=C(c1ccc2ccccc2c1)c1cnn2c(-c3cccnc3)ccnc12` [2-naphthalenyl[7-(3-pyridinyl)pyrazolo[1,5-a]pyrimidin-3-yl]methanone], the responders at 25 mg/kg amounted to 25%.

As to `O=C(c1ccsc1)c1cnn2c(-c3cccc(C(F)(F)F)c3)ccnc12` [3-thienyl[7-[3-(trifluoromethyl)phenyl]pyrazolo[1,5-a]pyrimidin-3-yl]methanone], the responders at 25 mg/kg was 75%.

On to `COc1ccc(C(=O)c2cnn3c(-c4ccncc4)ccnc23)cc1OC` [(3,4-dimethoxyphenyl)[7-(4-pyridinyl)pyrazolo[1,5-a]pyrimidin-3-yl]methanone], for which the responders at 25 mg/kg is 50%.

With `COc1ccccc1C(=O)c1cnn2c(-c3cccnc3)ccnc12` [(2-methoxyphenyl)[7-(3-pyridinyl)pyrazolo[1,5-a]pyrimidin-3-yl]methanone], the responders at 25 mg/kg amounted to 75%.

Regarding `O=C(c1ccsc1)c1cnn2c(-c3ccncc3)ccnc12` [[7-(4-pyridinyl)pyrazolo[1,5-a]pyrimidin-3-yl]-3-thienylmethanone], the responders at 25 mg/kg is 50%.

With `COc1cc(C(=O)c2cnn3c(-c4ccncc4)ccnc23)cc(OC)c1OC` [[7-(4-pyridinyl)pyrazolo[1,5-a]pyrimidin-3-yl](3,4,5-trimethoxyphenyl)methanone], the responders at 25 mg/kg is 25%.

On to `O=C(c1cc(Cl)ccc1Cl)c1cnn2c(-c3ccc(F)cc3)ccnc12` [(2,5-dichlorophenyl)[7-(4-fluorophenyl)pyrazolo[1,5-a]pyrimidin-3-yl]methanone], for which the responders at 25 mg/kg is 25%.

For `COc1ccccc1C(=O)c1cnn2c(-c3ccc(F)cc3)ccnc12` [[7-(4-fluorophenyl)pyrazolo[1,5-a]pyrimidin-3-yl](2-methoxyphenyl)methanone], the responders at 25 mg/kg worked out at 50%.

On to `O=C(c1cccc(Cl)c1)c1cnn2c(-c3ccc(F)cc3)ccnc12` [(3-chlorophenyl)[7-(4-fluorophenyl)pyrazolo[1,5-a]pyrimidin-3-yl]methanone], for which the responders at 25 mg/kg was 25%.

On to `O=C(c1cccc(Cl)c1)c1cnn2c(-c3ccncc3)ccnc12` [(3-chlorophenyl)[7-(4-pyridinyl)pyrazolo[1,5-a]pyrimidin-3-yl]methanone], for which the responders at 25 mg/kg came to 50%.

Take `Cc1cccc(C(=O)c2cnn3c(-c4ccncc4)ccnc23)c1` [(3-methylphenyl)[7-(4-pyridinyl)pyrazolo[1,5-a]pyrimidin-3-yl]methanone]: the responders at 25 mg/kg was 100%.

For `O=C(c1cccc(Cl)c1)c1cnn2c(-c3cccnc3)ccnc12` [(3-chlorophenyl)[7-(3-pyridinyl)pyrazolo[1,5-a]pyrimidin-3-yl]methanone], the responders at 25 mg/kg stood at 50%.

Turning to `CN(C)c1ccc(C(=O)c2cnn3c(-c4ccncc4)ccnc23)cc1` [[4-(dimethylamino)phenyl][7-(4-pyridinyl)pyrazolo[1,5-a]pyrimidin-3-yl]methanone], the responders at 25 mg/kg stood at 75%.

In the case of `O=C(c1ccncc1)c1cnn2c(-c3ccc(F)cc3)ccnc12` [[7-(4-fluorophenyl)pyrazolo[1,5-a]pyrimidin-3-yl]-4-pyridinylmethanone], the responders at 25 mg/kg worked out at 75%.

On to `COc1cccc(C(=O)c2cnn3c(-c4ccncc4)ccnc23)c1` [(3-methoxyphenyl)[7-(4-pyridinyl)pyrazolo[1,5-a]pyrimidin-3-yl]methanone], for which the responders at 25 mg/kg was 50%.

As to `O=C(c1ccc2c(c1)OCO2)c1cnn2c(-c3ccncc3)ccnc12` [1,3-benzodioxol-5-yl[7-(4-pyridinyl)pyrazolo[1,5-a]pyrimidin-3-yl]methanone], the responders at 25 mg/kg was 25%.

For the compound `COc1ccc(C(=O)c2cnn3c(-c4ccncc4)ccnc23)cc1` [(4-methoxyphenyl)[7-(4-pyridinyl)pyrazolo[1,5-a]pyrimidin-3-yl]methanone], the responders at 25 mg/kg turned out to be 25%.

In the case of `CSc1ccc(-c2ccnc3c(C(=O)c4ccccc4)cnn23)cc1` [[7-[4-(methylthio)phenyl]pyrazolo[1,5-a]pyrimidin-3-yl]phenylmethanone], the responders at 25 mg/kg was 50%.

In the case of `N#Cc1ccc(-c2ccnc3c(C(=O)c4ccc(F)cc4)cnn23)cc1` [4-[3-(4-fluorobenzoyl)pyrazolo[1,5-a]pyrimidin-7-yl]benzonitrile], the responders at 25 mg/kg was 50%.

Take `Cc1cnc2c(C(=O)c3ccccc3)cnn2c1-c1cccc(C(F)(F)F)c1` [[6-methyl-7-[3-(trifluoromethyl)phenyl]pyrazolo[1,5-a]pyrimidin-3-yl]phenylmethanone]: the responders at 25 mg/kg came out at 25%.

For `O=C(c1cc(Cl)ccc1Cl)c1cnn2c(-c3cccnc3)ccnc12` [(2,5-dichlorophenyl)[7-(3-pyridinyl)pyrazolo[1,5-a]pyrimidin-3-yl]methanone], the responders at 25 mg/kg is 25%.

With `O=C(c1cc(Cl)ccc1Cl)c1cnn2c(-c3ccncc3)ccnc12` [(2,5-dichlorophenyl)[7-(4-pyridinyl)pyrazolo[1,5-a]pyrimidin-3-yl]methanone], the responders at 25 mg/kg came out at 25%.

For the compound `Cc1ccccc1C(=O)c1cnn2c(-c3ccncc3)ccnc12` [(2-methylphenyl)[7-(4-pyridinyl)pyrazolo[1,5-a]pyrimidin-3-yl]methanone], the responders at 25 mg/kg amounted to 25%.

Turning to `Cc1cc(-c2cccc(C(F)(F)F)c2)n2ncc(C(=O)c3ccc(Cl)cc3)c2n1` [(4-chlorophenyl)[5-methyl-7-[3-(trifluoromethyl)phenyl]pyrazolo[1,5-a]pyrimidin-3-yl]methanone], the responders at 25 mg/kg worked out at 25%.

With `Cc1ccccc1C(=O)c1cnn2c(-c3cccnc3)ccnc12` [(2-methylphenyl)[7-(3-pyridinyl)pyrazolo[1,5-a]pyrimidin-3-yl]methanone], the responders at 25 mg/kg worked out at 25%.

For the compound `O=C(c1ccccc1Cl)c1cnn2c(-c3ccncc3)ccnc12` [(2-chlorophenyl)[7-(4-pyridinyl)pyrazolo[1,5-a]pyrimidin-3-yl]methanone], the responders at 25 mg/kg turned out to be 25%.

Regarding `O=C(c1ccc(F)cc1)c1cnn2c(-c3ccc(C(F)(F)F)cc3)ccnc12` [(4-fluorophenyl)[7-[4-(trifluoromethyl)phenyl]pyrazolo[1,5-a]pyrimidin-3-yl]methanone], the responders at 25 mg/kg was found to be 50%.
